From patent US20190030048A1, “CASEIN MICELLES FOR NANOENCAPSULATION OF HYDROPHOBIC COMPOUNDS” (TECHNION RESEARCH AND DEVELOPMENT FOUNDATION LTD., priority 2006, published 2019)
Where “and” joins values, the source holds several entries; their conditions need not be identical. Equal entries are not always repeated. Where two headings read alike, the source gives them in different places.

Assays:
[1] = Analytical fractionation (centrifugation) and RP-HPLC determination of vitamin D2 content in micelle pellet and serum; format: physicochemical; details: for recovered vitamin D2 found incorporated into the micelles (encapsulation efficiency): D2-rCM suspension
Procedure: Micelle preparations were centrifuged at 20° C. and 25,000×g for one hour and the supernatant was separated from the pellet by decantation. The supernatant was then ultra-filtered using Amicon 8050 stirred ultrafiltration cell with a 10,000 Da nominal molecular weight limit membrane (Millipore). All fractions were collected and analyzed for vitamin D2 content.
Each sample was then poured into a separatory funnel. […] After gentle mixing the phases were allowed to separate.

C=C1CC[C@H](O)C/C1=C/C=C1\CCC[C@]2(C)[C@@H]([C@H](C)/C=C/[C@H](C)C(C)C)CC[C@@H]12 [vitamin D2, Vitamin D2]
Percent of vitamin D2 remaining, micelle pellet (0 h): 100%
Percent of vitamin D2 remaining, UV exposed serum (control II) (serum, 0 h): 100%
Percent of vitamin D2 remaining, serum (serum, 0 h): 100%
Percent of vitamin D2 remaining, UV exposed serum (control II) (serum, 3 h): 0.11%
vitamin concentration in the micelle pellet compared to the supernatant (serum) ([1]; CM prepared by ultra-high pressure homogenization): 4-5 times
vitamin content of pellet ([1]; CM prepared by ultra-high pressure homogenization, pellet): 30.3±0.4 micrograms/mL
vitamin content of supernatant ([1]; CM prepared by ultra-high pressure homogenization, supernatant): 6.7±0.7 micrograms/mL
recovered vitamin D2 found incorporated into the micelles (encapsulation efficiency) ([1]; more typically): 45-60%
recovered vitamin D2 found incorporated into the micelles (encapsulation efficiency) ([1]; overall range): 25-75%
vitamin D2 concentration in the rCM ([1]; D2-rCM, micelle pellet): 44 to 57 µg/mL
vitamin D2 concentration in serum ([1]; D2-rCM, serum): 2 to 8 µg/mL
vitamin D2 concentration in the rCM relative to its concentration in serum ([1]; D2-rCM, more typically): 4-10 times and 5-10 times
